From patent publication US9833497B2, “Human originated EGF domain proteins and use of the same” (CHENGDU SOURCEBIO LIMITED-LIABILITY COMPANY, priority 2013, dated 2017)

Legend:
Assay type in all cases: cell-based
Citrobacter diversus = assay: MIC against Gram-negative bacteria: Citrobacter diversus; settings: 5×10^5 CFU/mL; for MIC C. diversus: two-fold serial dilution
How it was run: (§1)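 MIC, the lowest recombinant protein concentration giving no bacterial growth, found by two-fold serial dilution of human EGF-domain proteins in triplicate. Inoculum 5×10^5 CFU/mL in LB from cultures at McFarland 0.5; plates incubated at 37° C, 175 rpm shaking.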

E. coli DH5α = assay: Antibacterial activity: MIC and growth curve against E. coli DH5α in 96-well plate; settings: minimal inhibitory concentration against E. coli DH5α; 96-well plate, 5×10^5 CFU/mL, 37° C., judged after 8 h
How it was run: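 Log-phase DH5α (OD600 about 0.5, 37° C, 185 rpm in LB) was pelleted, resuspended in fresh LB and seeded at 5×10^5 CFU/mL with recombinant protein at 50, 25 and 12.5 μg/mL (two-fold series), in triplicate. Plates were shaken at 175 rpm, 37° C, and OD600 was read every 30 min. MIC was the lowest concentration with no growth.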

Pseudomonas aeruginosa = assay: MIC against Gram-negative bacteria: Pseudomonas aeruginosa; settings: 5×10^5 CFU/mL; for MIC P. aeruginosa: two-fold serial dilution
How it was run: as §1

Proteus vulgaris = assay: MIC against Gram-negative bacteria: Proteus vulgaris; settings: 5×10^5 CFU/mL; for MIC P. vulgaris: two-fold serial dilution
How it was run: as §1

Enterobacter cloacae = assay: MIC against Gram-negative bacteria: Enterobacter cloacae; settings: 5×10^5 CFU/mL; for MIC E. cloacae: two-fold serial dilution
How it was run: as §1

Serratia marcescens = assay: MIC against Gram-negative bacteria: Serratia marcescens; settings: 5×10^5 CFU/mL; for MIC S. marcescens: two-fold serial dilution
How it was run: as §1

Proteus mirabilis = assay: MIC against Gram-negative bacteria: Proteus mirabilis; settings: 5×10^5 CFU/mL; for MIC P. mirabilis: two-fold serial dilution
How it was run: as §1

Moraxella catarrhalis = assay: MIC against Gram-negative bacteria: Moraxella catarrhalis; settings: 5×10^5 CFU/mL; for MIC M. catarrhalis: two-fold serial dilution
How it was run: as §1

Klebsiella pneumonia = assay: MIC against Gram-negative bacteria: Klebsiella pneumonia; settings: 5×10^5 CFU/mL; for MIC K. pneumonia: two-fold serial dilution
How it was run: as §1

E. coli BL21 = assay: MIC against Gram-negative bacteria: E. coli BL21; settings: 5×10^5 CFU/mL; for MIC E. coli BL21: two-fold serial dilution
How it was run: as §1

Aeromonas hydrophila = assay: MIC against Gram-negative bacteria: Aeromonas hydrophila; settings: 5×10^5 CFU/mL; for MIC A. hydrophila: two-fold serial dilution
How it was run: as §1

[1] = Citrobacter diversus, 96-well plate, 37° C., 10 h
[2] = Pseudomonas aeruginosa, 96-well plate, 37° C., 10 h
[3] = Proteus vulgaris, 96-well plate, 37° C., 10 h
[4] = Enterobacter cloacae, 96-well plate, 37° C., 10 h
[5] = Serratia marcescens, 96-well plate, 37° C., 10 h
[6] = Proteus mirabilis, 96-well plate, 37° C., 10 h
[7] = Moraxella catarrhalis, 96-well plate, 37° C., 10 h
[8] = Klebsiella pneumonia, 96-well plate, 37° C., 10 h
[9] = E. coli BL21, 96-well plate, 37° C., 10 h
[10] = Aeromonas hydrophila, 96-well plate, 37° C., 10 h
[11] = E. coli BL21, 10 h cultivation at 37° C.

PRT1119 (EVLECASAPCEHNASCLEGLGSFRCLCWPGYSGELCE; listed as Homo sapiens)
MIC C. diversus (Citrobacter diversus; 10 h cultivation at 37° C.): 50 µg/mL | MIC (E. coli DH5α): 100 µg/mL | MIC P. aeruginosa (Pseudomonas aeruginosa; 10 h cultivation at 37° C.): 50 µg/mL | MIC P. vulgaris (Proteus vulgaris; 10 h cultivation at 37° C.): 25 µg/mL | MIC E. cloacae (Enterobacter cloacae; 10 h cultivation at 37° C.): 12.5 µg/mL | MIC S. marcescens (Serratia marcescens; 10 h cultivation at 37° C.): 50 µg/mL | MIC P. mirabilis (Proteus mirabilis; 10 h cultivation at 37° C.): 12.5 µg/mL | MIC M. catarrhalis (Moraxella catarrhalis; 10 h cultivation at 37° C.): 25 µg/mL | MIC K. pneumonia (Klebsiella pneumonia; 10 h cultivation at 37° C.): 25 µg/mL | MIC E. coli BL21 (E. coli BL21; 10 h cultivation at 37° C.): 25 µg/mL | MIC A. hydrophila (Aeromonas hydrophila; 10 h cultivation at 37° C.): 25 µg/mL

PRT1129 (PVTNCASSPCQNGGTCLQHTQVSYECLCKPEFTGLTCV; listed as Homo sapiens)
MIC C. diversus (Citrobacter diversus; 10 h cultivation at 37° C.): 12.5 µg/mL | MIC (E. coli DH5α): 50 µg/mL | MIC P. aeruginosa (Pseudomonas aeruginosa; 10 h cultivation at 37° C.): 50 µg/mL | MIC P. vulgaris (Proteus vulgaris; 10 h cultivation at 37° C.): 12.5 µg/mL | MIC E. cloacae (Enterobacter cloacae; 10 h cultivation at 37° C.): 12.5 µg/mL | MIC S. marcescens (Serratia marcescens; 10 h cultivation at 37° C.): 12.5 µg/mL | MIC P. mirabilis (Proteus mirabilis; 10 h cultivation at 37° C.): 12.5 µg/mL | MIC M. catarrhalis (Moraxella catarrhalis; 10 h cultivation at 37° C.): 12.5 µg/mL | MIC K. pneumonia (Klebsiella pneumonia; 10 h cultivation at 37° C.): 12.5 µg/mL | MIC E. coli BL21 (E. coli BL21; 10 h cultivation at 37° C.): 12.5 µg/mL | MIC A. hydrophila (Aeromonas hydrophila; 10 h cultivation at 37° C.): 25 µg/mL

PRT510 (CDCFLPGTDATTCDSETKKCSCSDQTGQCTCKVNVEGIHCDRCRPGKFGLDAKNPLGCSS; listed as Homo sapiens)
MIC against C. diversus (Citrobacter diversus; 96-well plate, 37° C., 10 h): 12.5 µg/mL | MIC (E. coli DH5α): 50 µg/mL | MIC against P. aeruginosa (Pseudomonas aeruginosa; 96-well plate, 37° C., 10 h): 12.5 µg/mL | MIC against P. vulgaris (Proteus vulgaris; 96-well plate, 37° C., 10 h): 25 µg/mL | MIC against E. cloacae (Enterobacter cloacae; 96-well plate, 37° C., 10 h): 50 µg/mL | MIC against S. marcescens (Serratia marcescens; 96-well plate, 37° C., 10 h): 12.5 µg/mL | MIC against P. mirabilis (Proteus mirabilis; 96-well plate, 37° C., 10 h): 50 µg/mL | MIC against M. catarrhalis (Moraxella catarrhalis; 96-well plate, 37° C., 10 h): 25 µg/mL | MIC against K. pneumonia (Klebsiella pneumonia; 96-well plate, 37° C., 10 h): 25 µg/mL | MIC against E. coli BL21 (E. coli BL21; 96-well plate, 37° C., 10 h): 25 µg/mL | MIC against A. hydrophila (Aeromonas hydrophila; 96-well plate, 37° C., 10 h): 25 µg/mL

PRT43 (CKCNGHASLCNTNTGKCFCTTKGVKGDECQLCEVENRYQGNPLRGTCYY; listed as Homo sapiens)
MIC (μg/mL) C. diversus (Citrobacter diversus; [1]): 12.5 µg/mL | MIC (E. coli DH5α): 12.5 µg/mL | MIC (μg/mL) P. aeruginosa (Pseudomonas aeruginosa; [2]): 12.5 µg/mL | MIC (μg/mL) P. vulgaris (Proteus vulgaris; [3]): 25 µg/mL | MIC (μg/mL) E. cloacae (Enterobacter cloacae; [4]): 12.5 µg/mL | MIC (μg/mL) S. marcescens (Serratia marcescens; [5]): 12.5 µg/mL | MIC (μg/mL) P. mirabilis (Proteus mirabilis; [6]): 12.5 µg/mL | MIC (μg/mL) M. catarrhalis (Moraxella catarrhalis; [7]): 25 µg/mL | MIC (μg/mL) K. pneumonia (Klebsiella pneumonia; [8]): 25 µg/mL | MIC (μg/mL) E. coli BL21 (E. coli BL21; [9]): 25 µg/mL | MIC (μg/mL) A. hydrophila (Aeromonas hydrophila; [10]): 25 µg/mL

PRT817 (FGPGCEQRCQCQHGAACDHVSGACTCPAGWRGTFCE; listed as Homo sapiens)
MIC (μg/mL) C. diversus (Citrobacter diversus; C. diversus, 10 h cultivation at 37° C.): 50 µg/mL | MIC (E. coli DH5α): 50 µg/mL | MIC (μg/mL) P. aeruginosa (Pseudomonas aeruginosa; P. aeruginosa, 10 h cultivation at 37° C.): 50 µg/mL | MIC (μg/mL) P. vulgaris (Proteus vulgaris; P. vulgaris, 10 h cultivation at 37° C.): 50 µg/mL | MIC (μg/mL) E. cloacae (Enterobacter cloacae; E. cloacae, 10 h cultivation at 37° C.): 12.5 µg/mL | MIC (μg/mL) S. marcescens (Serratia marcescens; S. marcescens, 10 h cultivation at 37° C.): 12.5 µg/mL | MIC (μg/mL) P. mirabilis (Proteus mirabilis; P. mirabilis, 10 h cultivation at 37° C.): 12.5 µg/mL | MIC (μg/mL) M. catarrhalis (Moraxella catarrhalis; M. catarrhalis, 10 h cultivation at 37° C.): 25 µg/mL | MIC (μg/mL) K. pneumonia (Klebsiella pneumonia; K. pneumonia, 10 h cultivation at 37° C.): 25 µg/mL | MIC (μg/mL) E. coli BL21 (E. coli BL21; [11]): 12.5 µg/mL | MIC (μg/mL) A. hydrophila (Aeromonas hydrophila; A. hydrophila, 10 h cultivation at 37° C.): 25 µg/mL

PRT58 (PCALGEGPACAHCAPDNSTRCGSCNPGYVLAQGLCR; listed as Homo sapiens)
MIC (μg/mL) C. diversus (Citrobacter diversus; [1]): 12.5 µg/mL | MIC (E. coli DH5α): 12.5 µg/mL | MIC (μg/mL) P. aeruginosa (Pseudomonas aeruginosa; [2]): 12.5 µg/mL | MIC (μg/mL) P. vulgaris (Proteus vulgaris; [3]): 25 µg/mL | MIC (μg/mL) E. cloacae (Enterobacter cloacae; [4]): 12.5 µg/mL | MIC (μg/mL) S. marcescens (Serratia marcescens; [5]): 50 µg/mL | MIC (μg/mL) P. mirabilis (Proteus mirabilis; [6]): 100 µg/mL | MIC (μg/mL) M. catarrhalis (Moraxella catarrhalis; [7]): 25 µg/mL | MIC (μg/mL) K. pneumonia (Klebsiella pneumonia; [8]): 12.5 µg/mL | MIC (μg/mL) E. coli BL21 (E. coli BL21; [9]): 25 µg/mL | MIC (μg/mL) A. hydrophila (Aeromonas hydrophila; [10]): 12.5 µg/mL

PRT1346 (EVNECQSNPCLNNAVCEDQVGGFLCKCPPGFLGTRCG; listed as Homo sapiens)
MIC against C. diversus (Citrobacter diversus; Citrobacter diversus, 10 h cultivation at 37° C.): 25 µg/mL | MIC (E. coli DH5α): 12.5 µg/mL | MIC against P. aeruginosa (Pseudomonas aeruginosa; Pseudomonas aeruginosa, 10 h cultivation at 37° C.): 50 µg/mL | MIC against P. vulgaris (Proteus vulgaris; Proteus vulgaris, 10 h cultivation at 37° C.): 50 µg/mL | MIC against E. cloacae (Enterobacter cloacae; Enterobacter cloacae, 10 h cultivation at 37° C.): 12.5 µg/mL | MIC against S. marcescens (Serratia marcescens; Serratia marcescens, 10 h cultivation at 37° C.): 25 µg/mL | MIC against P. mirabilis (Proteus mirabilis; Proteus mirabilis, 10 h cultivation at 37° C.): 25 µg/mL | MIC against M. catarrhalis (Moraxella catarrhalis; Moraxella catarrhalis, 10 h cultivation at 37° C.): 12.5 µg/mL | MIC against K. pneumonia (Klebsiella pneumonia; Klebsiella pneumonia, 10 h cultivation at 37° C.): 25 µg/mL | MIC against E. coli BL21 (E. coli BL21; [11]): 25 µg/mL | MIC against A. hydrophila (Aeromonas hydrophila; Aeromonas hydrophila, 10 h cultivation at 37° C.): 50 µg/mL
